Where two headings read alike, the source gives them in different places.
Legend:
[1] = biological target: Galanin GAL1 (h) (Homo sapiens (Human), UniProt P47211); test: Off-target screen, radioligand displacement at 10 μM; conditions: read-out: binding at 10 μM
[2] = system: Potassium KV channel (rat cortex); test: as above; type: binding
[3] = biological target: κ-opioid (h) (Homo sapiens (Human), UniProt P41145); test: as above; conditions: read-out: binding at 10 μM
[4] = biological target: Tachykinin NK2 (h) (Homo sapiens (Human), UniProt P21452); test: as above; conditions: read-out: binding at 10 μM
[5] = biological target: T1, 5-HT2C receptor (Homo sapiens (Human), UniProt P28335); test: 5-HT2C agonist radioligand binding ([125I]DOI)
Description: 5-HT2 Receptor Activity. […] Drug Test Anal 2012, 4 (7-8), 556-76. Ray, T. S., Psychedelics and the human receptorome. PLoS One 2010, 5 (2), e9019].

[6] = biological target: 5-HT1A (h) (Homo sapiens (Human), UniProt P08908); test: Off-target screen, radioligand displacement at 10 μM; type: binding; conditions: agonist radioligand
[7] = biological target: Adenosine A3 (h) (Homo sapiens (Human), UniProt P0DMS8); test: as above; conditions: read-out: binding at 10 μM
[8] = biological target: Muscarinic M3 (h) (Homo sapiens (Human), UniProt P20309); test: as above; type: binding; conditions: antagonist radioligand
[9] = biological target: Adrenergic β2 (h) (Homo sapiens (Human), UniProt P07550); test: as above; type: binding; conditions: antagonist radioligand
[10] = biological target: Prostaglandin EP2 (h) (Homo sapiens (Human), UniProt P43116); test: as above; conditions: read-out: binding at 10 μM
[11] = system: Na+ channel (site 2) (rat cortex); test: as above; type: binding; conditions: antagonist radioligand
[12] = biological target: 5-HT5a (h) (Homo sapiens (Human), UniProt P47898); test: as above; conditions: agonist, read-out: binding at 10 μM
[13] = biological target: T1, 5-HT2C receptor; test: 5-HT2C functional assay, IP1 (IPOne); type: cell-based; conditions: for Emax: IP1 assay, relative to 5-HT
Protocol: 5-HT2A,2B,2C receptor-mediated Gq activation—canonical signaling pathways—[phosphoinositide hydrolysis leading to the production of inositol phosphate 1 (IP1, IPOne, Cisbio assay) or direct G-protein activation using TRUPATH technology]were measured as previously described (Porter, R. H. P., Benwell, K. R., Lamb, H., Malcolm, C. S., Allen, N. F., Revell, D. F., Adams, D. R. and Sheardown, M. J., 1999, Functional characterization of agonists at recombinant human 5-HT2a, 5HT2b and 5-HT2c receptors in CHO-K1 cells, Brit J Pharmacol 128, 13; Olsen, R. H. J., DiBerto, J. F., English, J. G. et al. TRUPATH, an open-source biosensor platform for interrogating the GPCR transducerome. […] Briefly, for the IPOne assay, for 5-HT2ARs, CHO-K1 or HEK-293 cells were incubated with test articles and 5-HT (positive control) in stimulation buffer containing LiCl. After incubation, cells were lysed and fluorescence acceptor and donor were added. FRET was measured after 60 min at room temperature using a microplate reader (Envision, Perkin Elmer). TRUPATH assays followed a similar workflow, except that different reagents were used, and LiCl was not included in the samples; the protocol was based on the report by Olsen, R. H. J. et al., cited above.

[14] = biological target: D4.4 (h) (Homo sapiens (Human), UniProt P21917); test: Off-target screen, radioligand displacement at 10 μM; conditions: read-out: binding at 10 μM
[15] = biological target: Tachykinin NK3 (h) (Homo sapiens (Human), UniProt P29371); test: as above; conditions: read-out: binding at 10 μM
[16] = biological target: Prostacyclin IP (PGI2) (h) (Homo sapiens (Human), UniProt P43119); test: as above; conditions: read-out: binding at 10 μM
[17] = biological target: Histamine H2 (h) (Homo sapiens (Human), UniProt P25021); test: as above; conditions: read-out: binding at 10 μM
[18] = biological target: Melanocortin MC4 (h) (Homo sapiens (Human), UniProt P32245); test: as above; conditions: read-out: binding at 10 μM
[19] = system: Platelet-Derived Growth Factor (PDGF) (m); test: as above; type: binding, mouse
[20] = biological target: human alpha2B receptor (Homo sapiens (Human), UniProt P18089); test: alpha2B receptor binding ([3H]rauwolscine)
Protocol: At 10 μM, I-1 inhibited 97% of radioligand bound to rat alpha2 receptors.

[21] = system: C57BL/6J mice; test: HTR time course after s.c. administration in C57BL/6J mice; type: in vivo, mouse
Protocol: 5-HT2 agonist activity and relative duration of action in vivo of test compounds were assessed using the HTR assay in male, adult C57BL/6J mice (Jackson Laboratories). Mice were housed in standard laboratory cages with ad libitum access to food and water, and were acclimated to the vivarium for at least one week prior to testing in a procedure room. On the day of testing, mice were acclimated to the procedure room in their home cages for ≥60 min before administration of test compounds. Mice were injected subcutaneously, placed immediately thereafter in a clear, polycarbonate box (46×20×20 cm), and HTRs were counted at 5, 10, 15, 40, 120, 160, 200, 240, 280, 320, 360, and 1440 min, using hand-held tally counters, by two trained observers who were blind to treatment.

T1 sequence (P28335 whole entry, looked up): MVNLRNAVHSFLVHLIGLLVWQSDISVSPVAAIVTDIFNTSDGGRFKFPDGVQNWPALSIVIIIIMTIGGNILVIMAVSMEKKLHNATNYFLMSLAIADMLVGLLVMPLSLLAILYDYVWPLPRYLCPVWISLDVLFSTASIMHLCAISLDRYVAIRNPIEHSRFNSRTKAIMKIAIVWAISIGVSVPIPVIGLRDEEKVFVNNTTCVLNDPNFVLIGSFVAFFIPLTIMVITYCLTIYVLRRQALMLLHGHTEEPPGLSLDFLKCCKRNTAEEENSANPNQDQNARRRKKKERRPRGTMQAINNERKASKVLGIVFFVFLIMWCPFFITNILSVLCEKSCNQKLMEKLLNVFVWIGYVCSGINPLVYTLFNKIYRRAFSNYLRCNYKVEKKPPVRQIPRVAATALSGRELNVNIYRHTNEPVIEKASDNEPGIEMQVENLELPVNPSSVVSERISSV
Tachykinin NK3 (h), sequence (P29371 whole entry, looked up): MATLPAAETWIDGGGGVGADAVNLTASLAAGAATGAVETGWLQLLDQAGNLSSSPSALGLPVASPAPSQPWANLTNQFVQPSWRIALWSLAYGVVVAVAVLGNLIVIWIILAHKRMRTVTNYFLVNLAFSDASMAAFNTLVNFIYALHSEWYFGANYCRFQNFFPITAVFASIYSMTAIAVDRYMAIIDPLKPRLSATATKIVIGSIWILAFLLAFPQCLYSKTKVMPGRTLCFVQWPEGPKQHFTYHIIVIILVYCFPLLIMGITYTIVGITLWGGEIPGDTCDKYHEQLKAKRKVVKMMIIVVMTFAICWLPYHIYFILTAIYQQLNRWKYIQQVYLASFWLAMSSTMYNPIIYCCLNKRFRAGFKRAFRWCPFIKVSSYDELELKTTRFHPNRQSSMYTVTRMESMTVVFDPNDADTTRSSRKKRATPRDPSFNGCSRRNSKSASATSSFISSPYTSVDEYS
Muscarinic M3 (h), sequence (P20309 whole entry, looked up): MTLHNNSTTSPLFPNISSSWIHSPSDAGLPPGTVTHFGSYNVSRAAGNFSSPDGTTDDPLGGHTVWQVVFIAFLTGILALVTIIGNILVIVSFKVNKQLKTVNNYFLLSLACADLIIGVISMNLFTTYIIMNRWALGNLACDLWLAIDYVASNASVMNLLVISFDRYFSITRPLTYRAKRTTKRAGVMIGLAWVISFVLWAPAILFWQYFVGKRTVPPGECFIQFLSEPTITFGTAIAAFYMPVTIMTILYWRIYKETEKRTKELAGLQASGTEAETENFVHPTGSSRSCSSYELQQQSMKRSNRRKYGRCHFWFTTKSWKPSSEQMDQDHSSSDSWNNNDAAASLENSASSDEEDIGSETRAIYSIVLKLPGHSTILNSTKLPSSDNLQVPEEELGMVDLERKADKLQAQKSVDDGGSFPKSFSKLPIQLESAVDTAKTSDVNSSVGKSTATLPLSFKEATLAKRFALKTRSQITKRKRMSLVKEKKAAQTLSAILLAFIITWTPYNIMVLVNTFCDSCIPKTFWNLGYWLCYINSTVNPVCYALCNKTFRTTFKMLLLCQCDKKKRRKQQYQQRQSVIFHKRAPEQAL
Adrenergic β2 (h), sequence (P07550 whole entry, looked up): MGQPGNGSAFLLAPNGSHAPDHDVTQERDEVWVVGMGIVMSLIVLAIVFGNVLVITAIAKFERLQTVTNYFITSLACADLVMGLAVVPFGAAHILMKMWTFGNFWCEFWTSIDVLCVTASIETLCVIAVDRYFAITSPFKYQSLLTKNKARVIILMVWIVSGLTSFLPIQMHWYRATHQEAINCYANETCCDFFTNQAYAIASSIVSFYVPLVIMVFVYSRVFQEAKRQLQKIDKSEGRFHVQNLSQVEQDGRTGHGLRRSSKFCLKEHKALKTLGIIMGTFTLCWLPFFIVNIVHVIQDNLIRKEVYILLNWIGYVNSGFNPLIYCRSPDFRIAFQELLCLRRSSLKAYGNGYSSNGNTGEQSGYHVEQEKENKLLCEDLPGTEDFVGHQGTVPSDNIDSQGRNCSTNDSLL
Prostacyclin IP (PGI2) (h), sequence (P43119 whole entry, looked up): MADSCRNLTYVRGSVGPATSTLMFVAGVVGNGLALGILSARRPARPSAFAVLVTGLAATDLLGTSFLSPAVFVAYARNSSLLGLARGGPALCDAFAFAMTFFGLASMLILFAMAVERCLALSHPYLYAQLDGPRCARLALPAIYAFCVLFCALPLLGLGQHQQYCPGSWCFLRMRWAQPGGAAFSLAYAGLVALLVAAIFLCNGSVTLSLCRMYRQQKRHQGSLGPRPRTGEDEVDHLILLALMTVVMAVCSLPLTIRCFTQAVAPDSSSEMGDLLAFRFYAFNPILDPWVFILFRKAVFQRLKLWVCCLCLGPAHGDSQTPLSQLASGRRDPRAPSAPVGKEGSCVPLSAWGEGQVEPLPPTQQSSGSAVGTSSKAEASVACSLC
Melanocortin MC4 (h), sequence (P32245 whole entry, looked up): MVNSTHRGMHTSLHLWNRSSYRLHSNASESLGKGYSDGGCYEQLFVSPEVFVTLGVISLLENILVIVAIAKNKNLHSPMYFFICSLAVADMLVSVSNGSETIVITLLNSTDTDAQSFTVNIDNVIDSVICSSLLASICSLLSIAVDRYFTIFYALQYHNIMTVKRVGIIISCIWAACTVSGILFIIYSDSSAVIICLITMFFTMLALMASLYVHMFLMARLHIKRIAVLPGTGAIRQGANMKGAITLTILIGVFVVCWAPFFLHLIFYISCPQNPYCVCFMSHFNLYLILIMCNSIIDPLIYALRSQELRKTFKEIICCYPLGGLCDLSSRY
D4.4 (h), sequence (P21917 whole entry, looked up): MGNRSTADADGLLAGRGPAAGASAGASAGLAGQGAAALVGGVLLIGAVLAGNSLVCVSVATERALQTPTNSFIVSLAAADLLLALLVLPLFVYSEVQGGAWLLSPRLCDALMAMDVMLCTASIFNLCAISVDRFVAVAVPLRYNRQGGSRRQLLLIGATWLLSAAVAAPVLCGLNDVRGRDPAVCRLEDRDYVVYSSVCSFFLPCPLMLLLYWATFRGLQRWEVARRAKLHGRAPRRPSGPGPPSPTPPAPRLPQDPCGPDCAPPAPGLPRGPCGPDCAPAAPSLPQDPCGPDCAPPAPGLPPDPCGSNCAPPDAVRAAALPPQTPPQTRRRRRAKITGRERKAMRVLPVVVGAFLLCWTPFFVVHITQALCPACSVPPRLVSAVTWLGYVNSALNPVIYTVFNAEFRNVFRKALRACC
Galanin GAL1 (h), sequence (P47211 whole entry, looked up): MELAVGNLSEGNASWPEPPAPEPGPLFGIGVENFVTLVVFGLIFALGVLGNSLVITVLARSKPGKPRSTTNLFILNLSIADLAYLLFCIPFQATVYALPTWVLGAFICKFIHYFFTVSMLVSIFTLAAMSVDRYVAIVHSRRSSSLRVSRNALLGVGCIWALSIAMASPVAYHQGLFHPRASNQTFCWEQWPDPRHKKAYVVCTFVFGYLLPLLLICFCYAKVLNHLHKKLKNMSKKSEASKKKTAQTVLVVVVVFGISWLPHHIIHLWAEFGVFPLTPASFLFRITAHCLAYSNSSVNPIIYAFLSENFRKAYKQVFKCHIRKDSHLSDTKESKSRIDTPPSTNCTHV
5-HT5a (h), sequence (P47898 whole entry, looked up): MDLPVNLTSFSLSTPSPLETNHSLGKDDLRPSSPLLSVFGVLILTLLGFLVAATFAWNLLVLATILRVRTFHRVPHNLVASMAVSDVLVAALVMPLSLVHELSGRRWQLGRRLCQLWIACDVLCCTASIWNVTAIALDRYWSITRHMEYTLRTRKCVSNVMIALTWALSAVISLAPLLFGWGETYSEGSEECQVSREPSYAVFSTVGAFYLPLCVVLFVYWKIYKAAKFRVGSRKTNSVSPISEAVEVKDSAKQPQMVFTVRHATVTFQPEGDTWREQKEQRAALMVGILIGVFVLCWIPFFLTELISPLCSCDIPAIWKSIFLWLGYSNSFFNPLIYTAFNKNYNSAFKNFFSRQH
Adenosine A3 (h), sequence (P0DMS8 whole entry, looked up): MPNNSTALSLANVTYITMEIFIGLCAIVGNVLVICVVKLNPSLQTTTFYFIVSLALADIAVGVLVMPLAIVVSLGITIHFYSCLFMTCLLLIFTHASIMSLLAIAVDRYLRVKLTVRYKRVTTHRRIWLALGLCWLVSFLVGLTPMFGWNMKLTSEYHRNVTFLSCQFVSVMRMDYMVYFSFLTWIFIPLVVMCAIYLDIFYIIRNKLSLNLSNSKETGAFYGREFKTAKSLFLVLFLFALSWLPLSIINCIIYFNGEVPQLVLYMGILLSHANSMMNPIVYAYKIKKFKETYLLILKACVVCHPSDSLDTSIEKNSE
Tachykinin NK2 (h), sequence (P21452 whole entry, looked up): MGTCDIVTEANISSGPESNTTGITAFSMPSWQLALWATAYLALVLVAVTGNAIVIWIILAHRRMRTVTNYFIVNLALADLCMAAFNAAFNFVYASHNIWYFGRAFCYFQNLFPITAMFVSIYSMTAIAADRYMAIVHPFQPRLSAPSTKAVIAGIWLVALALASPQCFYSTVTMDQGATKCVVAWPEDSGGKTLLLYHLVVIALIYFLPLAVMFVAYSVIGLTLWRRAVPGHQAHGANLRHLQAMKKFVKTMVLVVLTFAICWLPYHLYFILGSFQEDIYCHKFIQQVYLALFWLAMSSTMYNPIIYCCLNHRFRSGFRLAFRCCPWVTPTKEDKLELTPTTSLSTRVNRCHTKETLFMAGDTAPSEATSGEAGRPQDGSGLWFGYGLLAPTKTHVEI
Histamine H2 (h), sequence (P25021 whole entry, looked up): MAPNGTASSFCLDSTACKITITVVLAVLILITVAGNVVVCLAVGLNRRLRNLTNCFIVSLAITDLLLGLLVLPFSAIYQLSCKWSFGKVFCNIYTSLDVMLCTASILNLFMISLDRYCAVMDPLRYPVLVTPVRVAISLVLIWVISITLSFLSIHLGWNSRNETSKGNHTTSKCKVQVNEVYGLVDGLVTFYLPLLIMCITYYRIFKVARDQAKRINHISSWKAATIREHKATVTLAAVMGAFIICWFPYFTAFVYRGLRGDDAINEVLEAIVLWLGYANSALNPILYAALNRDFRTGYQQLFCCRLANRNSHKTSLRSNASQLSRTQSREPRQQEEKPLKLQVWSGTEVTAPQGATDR

SMILES | inhibition at 10 µM [1] | binding at 10 μM [2] | inhibition at 10 µM [3] | inhibition at 10 µM [4] | inhibition at 10 µM [6] | inhibition at 10 µM [7] | inhibition at 10 µM [8] | inhibition at 10 µM [9] | inhibition at 10 µM [10] | inhibition at 10 µM [11] | inhibition at 10 µM [12] | EC50 [13] | Emax [13] | inhibition at 10 µM [14] | inhibition at 10 µM [15] | inhibition at 10 µM [16] | inhibition at 10 µM [17] | inhibition at 10 µM [18] | binding at 10 μM [19] | further results
COc1cc(CC(C)N)c(OC)cc1I (racemic) [DOI, (±)-2,5-dimethoxy-4-iodoamphetamine, reference compound] | < 50% | NB (inhibited less than 50% of radioligand bound to them, and therefore it can be concluded they do not bind (“no binding,” NB)) | < 50% | < 50% | ≥ 80% | < 50% | 60.4% | ≥ 80% | < 50% | 53.5% inhibition at 10 μM | < 50% | 8 nM | ~108% | < 50% | < 50% | < 50% | < 50% | < 50% | NB (inhibited less than 50% of radioligand bound to them, and therefore it can be concluded they do not bind (“no binding,” NB)) | Ki [5]: 0.48 nM
COc1cc(SC(F)(F)F)c(OC)cc1CCN [Compound I-1, 2-(2,5-dimethoxy-4-((trifluoromethyl)thio)phenyl)ethan-1-amine] | < 50% | NB (inhibited less than 50% of radioligand bound to them, and therefore it can be concluded they do not bind (“no binding,” NB)) | < 50% | < 50% | > 80% | < 50% | 79% | 52.2% | < 50% | 68.4% inhibition at 10 μM | < 50% | 7.3 nM | ~99% | < 50% | < 50% | < 50% | < 50% | < 50% | NB (inhibited less than 50% of radioligand bound to them, and therefore it can be concluded they do not bind (“no binding,” NB)) | inhibition at 10 µM [5]: > 80%; binding selectivity for 5-HT2C over 5-HT2B ([5]; Ki, [125I]DOI): ~12 fold; Ki ([5]; radioligand [125I](±)DOI, read-out: 5-HT2C, Ki): 0.55 nM; Ki [20]: 1020 nM; activation selectivity for 5-HT2C over 5-HT2B ([13]; EC50, IP1): ~12 fold; HTR, dose-response ([21]; 0.1, 0.3, 1, 3 mg/kg s.c.): robust dose-dependent HTR; HTR duration versus DOI ([21]; DOI 1 mg/kg s.c.): persisted longer
